Experimental data as given in patent US20130164387A9, “NOVEL MANNOPYRANOSIDE DERIVATIVES WITH ANTICANCER ACTIVITY” (Centre National De La Recherche Scientifique, priority 2009, published 2013).

Tested on: B16 melanoma
Assay: Tumor growth and survival of mice which have a B16 melanoma
Assay type: in vivo, mouse
Settings: for inhibition of tumor growth: mice with subcutaneous B16 melanoma, dose of 300 mg/kg
Procedure: A melanoma is induced in a mouse by subcutaneous injection of tumor cells (B16 cells).
The tumor develops within 10 days in the subcutaneous position (ventral face of the thigh). The size of the tumor is measured with a caliper rule and its volume is estimated according to the formula V=L×w×w, in which L represents the length and w represents the width. Various compounds of the invention were administered to mice having received syngenic melanoma cells (B16) at a dose of 300 mg/kg.

## 6-(METHYL 6-DEOXY-α-D-MANNOPYRANOSIDE) BORONIC ACID [compound 7f]
After 18 days of treatment, 300 mg/kg, nontreated mouse group 40% mortality
  mortality in treated mouse group: no mortality
  inhibition of tumor growth: 65%

## METHYL 6-O-HYDROGENOPHOSPHONATE-α-D-MANNO-PYRANOSIDE [compound 4e]
  inhibition of tumor growth: 40%
